Results as given in ChEMBL document CHEMBL5465560, “Selectivity Literature for EUbOPEN Chemogenomic Library” (2024).
Values belong to the molecule of their own block, whether it stands above or below them.

Key:
[1] = molecular target: Casein kinase I isoform alpha (Homo sapiens, UniProt P48729); experiment: Selectivity interaction (Kinase panel (literature)) EUB0001199aCl CSNK1A1; details: at 1 µM
[2] = molecular target: T1, Serine/threonine-protein kinase TBK1 (Homo sapiens) (UniProt Q9UHD2); experiment: Selectivity interaction (KinomeScan (DiscoverX)) EUB0000618a TBK1; details: at 10 µM
T1 sequence (whole entry): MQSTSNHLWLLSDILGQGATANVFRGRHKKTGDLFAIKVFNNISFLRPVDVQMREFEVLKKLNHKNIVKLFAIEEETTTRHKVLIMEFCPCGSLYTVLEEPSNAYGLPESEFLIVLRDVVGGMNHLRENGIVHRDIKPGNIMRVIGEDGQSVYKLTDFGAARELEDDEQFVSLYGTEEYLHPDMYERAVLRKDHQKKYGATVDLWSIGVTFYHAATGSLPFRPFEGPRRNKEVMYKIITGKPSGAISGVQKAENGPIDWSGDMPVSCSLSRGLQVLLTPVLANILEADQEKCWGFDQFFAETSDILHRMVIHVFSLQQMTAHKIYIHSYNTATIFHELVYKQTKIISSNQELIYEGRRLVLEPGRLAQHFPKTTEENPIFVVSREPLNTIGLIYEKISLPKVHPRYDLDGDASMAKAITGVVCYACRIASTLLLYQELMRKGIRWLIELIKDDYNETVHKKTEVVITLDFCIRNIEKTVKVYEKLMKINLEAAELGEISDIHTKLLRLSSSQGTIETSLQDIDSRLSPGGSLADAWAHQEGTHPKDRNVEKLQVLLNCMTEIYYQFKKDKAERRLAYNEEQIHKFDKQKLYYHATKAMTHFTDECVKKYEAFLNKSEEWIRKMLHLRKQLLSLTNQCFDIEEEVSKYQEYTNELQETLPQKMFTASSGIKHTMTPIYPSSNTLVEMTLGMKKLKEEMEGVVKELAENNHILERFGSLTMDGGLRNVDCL

[3] = molecular target: Serine/threonine-protein kinase PRP4 homolog (Homo sapiens) (UniProt Q13523); experiment: Selectivity interaction (KinomeScan (DiscoverX)) EUB0000607a PRPF4; details: at 10 µM
Sequence of Serine/threonine-protein kinase PRP4 homolog (Homo sapiens) (Q13523 whole entry): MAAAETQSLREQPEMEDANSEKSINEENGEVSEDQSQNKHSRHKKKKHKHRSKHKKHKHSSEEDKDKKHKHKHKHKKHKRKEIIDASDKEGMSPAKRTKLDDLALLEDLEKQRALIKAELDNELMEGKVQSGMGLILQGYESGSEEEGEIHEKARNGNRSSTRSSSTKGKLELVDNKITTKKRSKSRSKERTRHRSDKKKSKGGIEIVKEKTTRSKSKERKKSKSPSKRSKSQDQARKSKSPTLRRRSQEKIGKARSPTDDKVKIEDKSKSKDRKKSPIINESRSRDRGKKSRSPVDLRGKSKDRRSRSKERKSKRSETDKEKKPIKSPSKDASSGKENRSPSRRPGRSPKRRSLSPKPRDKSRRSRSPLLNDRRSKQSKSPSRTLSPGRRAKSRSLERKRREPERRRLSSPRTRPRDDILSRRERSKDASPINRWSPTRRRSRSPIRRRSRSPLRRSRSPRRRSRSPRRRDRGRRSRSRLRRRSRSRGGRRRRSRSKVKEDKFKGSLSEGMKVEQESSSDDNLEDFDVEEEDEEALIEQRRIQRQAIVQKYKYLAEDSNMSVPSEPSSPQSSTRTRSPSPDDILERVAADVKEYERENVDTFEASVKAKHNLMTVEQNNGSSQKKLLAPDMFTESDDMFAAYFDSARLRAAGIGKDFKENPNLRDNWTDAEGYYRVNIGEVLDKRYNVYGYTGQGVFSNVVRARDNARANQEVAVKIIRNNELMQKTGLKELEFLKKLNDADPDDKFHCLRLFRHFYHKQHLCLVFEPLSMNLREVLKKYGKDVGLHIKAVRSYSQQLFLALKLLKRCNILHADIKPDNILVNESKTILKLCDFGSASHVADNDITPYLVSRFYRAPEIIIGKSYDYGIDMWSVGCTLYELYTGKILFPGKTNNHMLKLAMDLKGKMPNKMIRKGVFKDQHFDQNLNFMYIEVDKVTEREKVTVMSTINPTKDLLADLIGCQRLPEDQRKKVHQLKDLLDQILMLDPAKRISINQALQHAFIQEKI

[4] = molecular target: Ribosomal protein S6 kinase alpha-5 (Homo sapiens) (UniProt O75582); experiment: Selectivity interaction (KinomeScan (DiscoverX)) EUB0000045b RPS6KA5; details: at 1 µM
Sequence of Ribosomal protein S6 kinase alpha-5 (Homo sapiens) (O75582 whole entry, looked up): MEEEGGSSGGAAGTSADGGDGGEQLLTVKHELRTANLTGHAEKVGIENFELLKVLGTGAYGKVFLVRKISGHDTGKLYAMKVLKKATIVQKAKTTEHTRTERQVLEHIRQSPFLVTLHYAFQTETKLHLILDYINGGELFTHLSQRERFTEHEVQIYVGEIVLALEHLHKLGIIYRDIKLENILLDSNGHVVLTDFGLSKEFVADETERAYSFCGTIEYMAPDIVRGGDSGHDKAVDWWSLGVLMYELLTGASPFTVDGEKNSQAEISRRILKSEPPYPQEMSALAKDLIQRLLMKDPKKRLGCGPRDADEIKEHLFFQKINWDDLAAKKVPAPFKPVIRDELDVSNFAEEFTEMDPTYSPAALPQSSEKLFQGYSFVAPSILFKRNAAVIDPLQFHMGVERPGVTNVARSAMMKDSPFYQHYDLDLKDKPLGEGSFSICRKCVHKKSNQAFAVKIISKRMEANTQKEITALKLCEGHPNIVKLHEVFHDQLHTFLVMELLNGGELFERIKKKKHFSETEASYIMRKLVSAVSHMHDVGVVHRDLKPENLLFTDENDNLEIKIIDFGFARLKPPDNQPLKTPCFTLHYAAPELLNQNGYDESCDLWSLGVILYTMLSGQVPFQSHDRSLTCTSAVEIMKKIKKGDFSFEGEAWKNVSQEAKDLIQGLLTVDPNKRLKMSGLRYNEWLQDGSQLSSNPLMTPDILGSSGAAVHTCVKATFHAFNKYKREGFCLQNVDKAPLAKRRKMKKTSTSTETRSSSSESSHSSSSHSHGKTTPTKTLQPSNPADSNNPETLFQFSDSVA

[5] = molecular target: T2, MAP/microtubule affinity-regulating kinase 4 (Homo sapiens) (UniProt Q96L34); experiment: Selectivity interaction (KinomeScan (DiscoverX)) EUB0000092b MARK4; details: at 10 µM
T2 sequence (whole entry): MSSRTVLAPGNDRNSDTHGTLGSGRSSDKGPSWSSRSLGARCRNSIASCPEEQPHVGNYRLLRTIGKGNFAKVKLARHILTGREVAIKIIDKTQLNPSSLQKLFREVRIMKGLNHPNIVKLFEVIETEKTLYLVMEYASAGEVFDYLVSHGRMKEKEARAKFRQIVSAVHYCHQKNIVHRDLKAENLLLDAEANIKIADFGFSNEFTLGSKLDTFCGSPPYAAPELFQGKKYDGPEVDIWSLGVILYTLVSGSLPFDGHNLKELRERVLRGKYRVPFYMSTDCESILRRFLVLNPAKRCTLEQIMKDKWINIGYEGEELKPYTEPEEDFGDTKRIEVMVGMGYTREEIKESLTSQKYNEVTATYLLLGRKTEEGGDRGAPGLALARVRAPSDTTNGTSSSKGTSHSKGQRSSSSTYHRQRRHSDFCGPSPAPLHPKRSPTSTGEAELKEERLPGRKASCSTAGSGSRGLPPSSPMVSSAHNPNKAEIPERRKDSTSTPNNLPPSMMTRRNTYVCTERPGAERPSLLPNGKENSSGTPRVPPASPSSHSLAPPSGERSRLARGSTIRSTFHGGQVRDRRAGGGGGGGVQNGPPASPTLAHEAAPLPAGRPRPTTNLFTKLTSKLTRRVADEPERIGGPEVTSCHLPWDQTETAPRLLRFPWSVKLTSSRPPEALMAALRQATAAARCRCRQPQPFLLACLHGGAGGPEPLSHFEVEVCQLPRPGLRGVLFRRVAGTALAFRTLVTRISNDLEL

[6] = molecular target: T3, Myosin-IIIb (Homo sapiens) (UniProt Q8WXR4); experiment: Selectivity interaction (LanthaScreen Eu Kinase Binding Assay) EUB0001632a MYO3B; details: at 10 µM
T3 sequence (whole entry): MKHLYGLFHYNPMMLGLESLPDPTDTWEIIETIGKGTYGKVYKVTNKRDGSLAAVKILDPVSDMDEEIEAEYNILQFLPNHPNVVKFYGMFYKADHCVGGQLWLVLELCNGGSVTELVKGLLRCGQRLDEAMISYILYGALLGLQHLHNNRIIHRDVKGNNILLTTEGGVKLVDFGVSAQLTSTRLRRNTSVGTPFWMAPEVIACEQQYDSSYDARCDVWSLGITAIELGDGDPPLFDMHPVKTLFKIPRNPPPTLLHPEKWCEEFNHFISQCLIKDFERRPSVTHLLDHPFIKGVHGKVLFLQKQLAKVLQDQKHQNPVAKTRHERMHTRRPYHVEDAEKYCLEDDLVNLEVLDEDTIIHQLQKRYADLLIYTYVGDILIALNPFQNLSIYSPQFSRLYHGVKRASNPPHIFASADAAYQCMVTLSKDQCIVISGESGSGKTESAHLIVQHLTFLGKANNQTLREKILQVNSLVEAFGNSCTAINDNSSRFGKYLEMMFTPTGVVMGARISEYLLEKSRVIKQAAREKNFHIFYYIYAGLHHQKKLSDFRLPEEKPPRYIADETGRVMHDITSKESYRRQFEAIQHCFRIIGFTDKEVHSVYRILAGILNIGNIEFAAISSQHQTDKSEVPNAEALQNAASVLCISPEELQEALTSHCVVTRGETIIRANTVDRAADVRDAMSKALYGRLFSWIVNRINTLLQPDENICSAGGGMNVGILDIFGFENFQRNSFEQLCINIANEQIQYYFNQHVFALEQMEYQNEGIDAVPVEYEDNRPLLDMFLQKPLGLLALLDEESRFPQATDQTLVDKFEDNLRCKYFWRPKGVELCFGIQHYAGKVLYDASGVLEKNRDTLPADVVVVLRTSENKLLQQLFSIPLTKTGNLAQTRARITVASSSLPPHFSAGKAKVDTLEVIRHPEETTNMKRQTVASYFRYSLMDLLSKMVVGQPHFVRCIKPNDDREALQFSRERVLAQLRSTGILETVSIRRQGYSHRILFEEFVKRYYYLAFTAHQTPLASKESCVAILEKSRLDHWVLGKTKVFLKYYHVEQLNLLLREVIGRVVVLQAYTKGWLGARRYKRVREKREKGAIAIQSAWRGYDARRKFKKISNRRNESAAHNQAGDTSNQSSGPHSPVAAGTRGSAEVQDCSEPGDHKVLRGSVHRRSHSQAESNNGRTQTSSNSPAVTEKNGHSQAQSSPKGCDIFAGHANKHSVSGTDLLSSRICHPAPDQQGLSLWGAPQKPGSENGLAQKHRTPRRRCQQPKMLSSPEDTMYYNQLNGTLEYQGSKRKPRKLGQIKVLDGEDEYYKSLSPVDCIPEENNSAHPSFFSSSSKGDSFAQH

Sequence of Casein kinase I isoform alpha (P48729 2-337 limits assumed): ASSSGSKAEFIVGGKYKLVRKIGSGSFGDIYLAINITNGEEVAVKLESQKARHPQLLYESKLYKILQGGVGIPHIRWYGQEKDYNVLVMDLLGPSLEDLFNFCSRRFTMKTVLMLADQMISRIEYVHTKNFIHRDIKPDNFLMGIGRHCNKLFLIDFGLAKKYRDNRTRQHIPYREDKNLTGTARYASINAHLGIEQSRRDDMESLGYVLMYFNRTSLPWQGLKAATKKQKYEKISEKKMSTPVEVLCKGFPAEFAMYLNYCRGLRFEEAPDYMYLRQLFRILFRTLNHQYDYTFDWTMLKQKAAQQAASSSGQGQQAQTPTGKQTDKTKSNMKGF

% of inhibition [1]: 51%
SMILES: CN1Cc2nccc(-c3cn(C)nc3-c3ccc(F)cc3)c2C1=O

SMILES: O[C@H]1CC[C@H](Nc2ncc3nc(Nc4c(F)cc(F)cc4F)n([C@H]4CCOC4)c3n2)CC1
% of control [2]: 74%

SMILES: CNC(=O)Nc1ccc(-c2nc(N3CC4CCC(C3)O4)c3cnn(C4CCC5(CC4)OCCO5)c3n2)cc1
% of control [3]: 70%

SMILES: C=CC(=O)Nc1cc(-n2c(=O)ccc3cnc4ccc(-c5ccc(NS(C)(=O)=O)cc5)cc4c32)ccc1C
% of control [4]: 95%

SMILES: CCC(=O)N1CCN(c2ccc(-n3c(=O)ccc4cnc5ccc(-c6cnc7ccccc7c6)cc5c43)cc2C(F)(F)F)CC1
% of control [5]: 100%

% of inhibition [6]: -8.99%
SMILES: Cn1cc(-n2cnc3c(NCc4nc5cc(Cl)c(Cl)cc5[nH]4)nc(N4CCOCC4)nc32)cn1
